# Results: patent publication US6448282B1, “1H-4(5)-substituted imidazole derivatives” (Gliatech, Inc., priority 1995, dated 2002)
# Columns and labels:
# Histamine H3 receptor = biological target: T1, Histamine H3 receptor (Rattus norvegicus, UniProt Q9QYN8); assay: In vitro histamine H3 receptor binding analysis, [3H]-Nα-methylhistamine, rat cortical membranes; settings: Ki=IC50/(1+([Ligand]/[Kd])
# T1 construct: from tissue; host or cells: rat cerebral cortex membranes
# Protocol: Briefly, animals were sacrificed by decapitation and the cerebral cortex was rapidly removed. Rat cortices were mechanically homogenized with an Omni 1000 motor driven homogenizer in 10 volumes (wt/vol) of Krebs-Ringers Hepes buffer (pH 7.4) containing the following protease inhibitors; EDTA (10 mM), PMSF (0.1 mM), chymostatin (0.2 mg/50 ml) and leupeptin (0.2 mg/50 ml). The homogenate was centrifuged in a Sorvall at ˜40,000×g for 30 min. The pellet was resuspended by mechanical homogenization in 25 ml water and lysed on ice for 30 min. The homogenate was recentrifuged and the membrane lysis was repeated. The membranes were recentrifuged and the final pellet was resuspended in 14 volumes of water to give approximately 200 μg protein/100 μl final concentration. The suspension was stored at −80° C. prior to use. Protein concentrations were determined by Coomassie Plus Protein Assay (Pierce, Rockford, Ill.).
# Nonspecific binding (NSB) was accounted for by the inclusion of thioperamide (10 μM). The samples were incubated for 40 min at 25° C. Samples were filtered through glass fiber strips, pre-washed with 0.3% polyethyleneimine, using a Brandell cell harvester. […] Filters were transferred to polyethylene minivials and counted in 3.5 ml of scintillation fluid (Ecolume, ICN Biomedicals, Inc.). […] Saturation and competition experiments were analyzed with the ReceptorFit saturation and competition curve fitting programs (Lundon Software, Inc., Cleveland, Ohio).
# cat = settings: cited from earlier work
# [1] = test system: histamine synthesis and release; settings: in vivo studies; cited from earlier work
# [2] = test system: electrically-induced convulsions; settings: cited from earlier work
# rats = settings: cited from earlier work
# T1 sequence (Q9QYN8 whole entry): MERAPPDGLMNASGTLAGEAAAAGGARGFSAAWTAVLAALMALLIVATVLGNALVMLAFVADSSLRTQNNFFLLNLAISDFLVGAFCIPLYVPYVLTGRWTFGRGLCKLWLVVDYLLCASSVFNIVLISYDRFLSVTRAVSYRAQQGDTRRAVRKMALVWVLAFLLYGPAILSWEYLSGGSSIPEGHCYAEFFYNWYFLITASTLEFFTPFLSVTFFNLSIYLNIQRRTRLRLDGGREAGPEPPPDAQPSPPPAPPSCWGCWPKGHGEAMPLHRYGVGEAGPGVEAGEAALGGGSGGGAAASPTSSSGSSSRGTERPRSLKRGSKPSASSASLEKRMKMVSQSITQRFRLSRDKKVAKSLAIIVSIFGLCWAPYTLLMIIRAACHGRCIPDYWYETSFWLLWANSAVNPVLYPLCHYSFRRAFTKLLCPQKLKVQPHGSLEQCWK
SMILES,Ki (Histamine H3 receptor),other results
"N[C@@H](Cc1ccccc1)C(=O)NCCc1c[nH]cn1 [Example 1, 2-(S)-Amino-N-(2-imidazol-4-yletyl)-3-phenyl propanamide]",104 ± 14 nM,–
"O=C(NCCc1c[nH]cn1)[C@@H]1CCCN1 [Example 2, N-(2-Imidazol-4-ylethyl)-(S)-pyrrolidin-2-ylformamide]",202 ± 2 nM,–
O=C(NCCc1c[nH]cn1)[C@@H]1Cc2ccccc2CN1 [Example 3],82.7 ± 7.7 nM,–
"N[C@H](Cc1ccccc1)C(=O)NCCc1c[nH]cn1 [Example 4, 2-(R)-Amino-N-(2-imidazol-4-yletyl)-3-phenyl propanamide]",> 10000 nM,–
"N[C@@H](Cc1ccc(F)cc1)C(=O)NCCc1c[nH]cn1 [Example 5, 2-(S)-Amino-3-(4-flurophenyl)-N-(2-imidazoyl-4-ylethyl)propanamide]",84.5 ± 12.8 nM,–
"N[C@@H](CC1CCCCC1)C(=O)NCCc1cnc[nH]1 [Example 6, 2-(S)-Amino-3-cyclohexyl-N-(2-imidazol-4-ylethyl)propanamide]",30.8 ± 2.1 nM,–
CN[C@@H](Cc1ccccc1)C(=O)NCCc1c[nH]cn1 [Example 7],1650 ± 310 nM,–
"N[C@@H](Cc1cccc2ccccc12)C(=O)NCCc1c[nH]cn1 [Example 8, 2-(S)-Amino-N-(2-imidazol-4-ylethyl)-3-naphthylpropanamide]",299 ± 82 nM,–
"N[C@H](C(=O)NCCc1c[nH]cn1)c1ccccc1 [Example 9, 2-(S)-Amino-N-(2-imidazol-4-ylethyl)-2-phenylethanamide]",630 ± 51 nM,–
"CC(=O)N[C@@H](CC1CCCCC1)C(=O)NCCc1c[nH]cn1 [Example 10, 2-(S)-(Acetylamino)-3-cycohexyl-N-(2-imidazol-4-ylethyl)propanamide]",5490 ± 255 nM,–
"N[C@@H](CCc1ccccc1)C(=O)NCCc1c[nH]cn1 [Example 11, 2-(S)-Amino-N-(2-imidazol-4-ylethyl)-4-phenylbutanamide]",10.9 ± 1.7 nM,–
"O=C(NCCc1c[nH]cn1)[C@@H]1CC2CCCCC2N1 (stereo partly drawn) [Example 12, (7-Azabicyclo[4.3.0]non-(S)-8-yl)-N-(2-imidazol-4-ylethyl)formamide]",11.1 ± 0.4 nM,–
"N[C@@H](Cc1ccc(OCc2ccccc2)cc1)C(=O)NCCc1c[nH]cn1 [Example 13, 2-(S)-Amino-N-(2-imidazol-4-ylethyl)-3-(4-(phenylmethoxy)phenyl) propanamide]",199 ± 24 nM,–
"N[C@@H](COCc1ccccc1)C(=O)NCCc1c[nH]cn1 [Example 14, 2-(S)-Amino-N-(2-imidazol-4-ylethyl)-3-(phenylmethoxy)propanamide]",122 ± 11 nM,–
"N[C@@H](CC(=O)OCc1ccccc1)C(=O)NCCc1c[nH]cn1 [Example 15, Phenylmethyl-3-(S)-amino-3-(N-(2-imidazol-4-ylethyl)carbamoyl)propanoate]",81.6 ± 13.6 nM,–
"N[C@@H](Cc1c[nH]cn1)C(=O)NCCc1c[nH]cn1 [Example 16, 2-(S)-Amino-3-imidazol-4-yl-N-(2-imidazol-4-ylethyl)propanamide]",3260 ± 457 nM,–
"Cc1c(C)c(S(=O)(=O)NC(=N)NCCC[C@H](N)C(=O)NCCc2c[nH]cn2)c(C)c2c1OC(C)(C)CC2 [Example 17, 2-(S)-Amino-N-(2-imidazol-4ylethyl)-5-((imino(((2,2,5,7,8-pentamethylchroman-6-yl)sulfonyl)amino)methyl)amino)pentanamide]",14 ± 3 nM,–
"CN(CCc1c[nH]cn1)C(=O)[C@@H]1CC2CCCCC2N1 (stereo partly drawn) [Example 18, (7-Azabicyclo[4.3.0]non-(S)-8-yl)-N-(2-imidazol-4-ylethyl)-N-methylformamide]",45 ± 11 nM,–
C[C@H](Cc1c[nH]cn1)NC(=O)[C@@H]1CC2CCCCC2N1 (stereo partly drawn) [Example 21],231 ± 15 nM,–
"c1nc(CCNC[C@@H]2CC3CCCCC3N2)c[nH]1 (stereo partly drawn) [Example 22, ((7-Azabicyclo[4.3.0]non-(S)-8-yl)methyl)(2-imidazol-4-ylethyl)amine]",66 ± 4 nM,–
"C(=C/CCC1CCCCC1)/CCc1c[nH]cn1 [Example 24, 4-(6-Cyclohexyl-cis-3-enyl)imidazole]",4.2 ± 0.6 nM,–
"N[C@H](/C=C/CCc1c[nH]cn1)CC1CCCCC1 [Example 26, 1-Cyclohexyl-6-imidazol-4-ylhex-trans-3-en-2-(S)-ylamine]",1 ± 0.1 nM,–
"C(#CCCc1c[nH]cn1)CCCc1ccccc1 [Example 39, 4-(7-Phenylhept-3-ynyl)imidazole]",6.7 ± 0.6 nM,–
"c1ncc(CCCCCCC2CCCCC2)[nH]1 [Example 41, 4-(6-Cyclohexylhexyl)imidazole]",74.5 nM,–
"C(=C/CCc1c[nH]cn1)/CCc1ccccc1 [Example 42, 4-(6-Phenylhex-cis-3-enyl)imidazole]",5.5 ± 0.02 nM,–
"C#Cc1c[nH]cn1 [Example 46, 4-Ethynylimidazole]",> 10000 nM,–
"BrC(Br)=Cc1c[nH]cn1 [Example 48, 4-(2,2-Dibromovinyl)imidazole]",> 10000 nM,–
C[C@@H](N)Cc1cnc[nH]1 [RAMHA],–,deep slow wave sleep (cat; oral administration): significant increase
S=C(NC1CCCCC1)N1CCC(c2cnc[nH]2)CC1 [thioperamide],–,"synthesis and release of histamine [1]: increase in synthesis and release of histamine; durations of every convulsive phase ([2]; after electrically-induced convulsions): significantly and dose-dependently decrease; electroconvulsive threshold ([2]; in vivo): increase the electroconvulsive threshold; wakefulness (cat): enhanced wakefulness in a dose-dependent fashion; wakefulness, slow wave and REM sleep (rats): increase wakefulness and decrease slow wave and REM sleep"

# Second part, led by results:
Ki (Histamine H3 receptor),SMILES,other results
63 ± 1 nM,"N=C(N)NCCC[C@H](N)C(=O)NCCc1c[nH]cn1 [Example 19, 5-(Amidinoamino)-2-(S)-amino-N-(2-imidazol-4-ylethyl)pentanamide]",–
122 ± 37 nM,"CC(C)C[C@H](N)C(=O)NCCc1c[nH]cn1 [Example 20, 2-(S)-Amino-N-(2-imidazol-4-ylethyl)-4-methylpentanamide]",–
2.9 ± 0.2 nM,"C(#CCCC1CCCCC1)CCc1c[nH]cn1 [Example 23, 4-(6-Cyclohexylhex-3-ynyl)imidazole]",–
16 ± 2 nM,"C(=C\CCC1CCCCC1)/CCc1c[nH]cn1 [Example 25, 4-(6-Cyclohexylhex-trans-3-enyl)imidazole]",–
79 ± 22 nM,"CCC#CCCc1c[nH]cn1 [Example 27, 4-Hex-3-ynylimidazole]",–
27 ± 7.5 nM,"CCCC#CCCc1c[nH]cn1 [Example 28, 4-Heptyl-3-ynylimidazole]",–
3.7 ± 1.1 nM,"CC(C)CCC#CCCc1c[nH]cn1 [Example 29, 4-(7-Methyloct-3-ynyl)imidazole]",–
0.95 ± 0.3 nM,"C(#CCCC1CCCC1)CCc1c[nH]cn1 [Example 30, 4-(6-Cyclopentylhex-3-ynyl)imidazole]",–
0.8 ± 0.4 nM,"CC(C)(C)CCC#CCCc1c[nH]cn1 [Example 32, 4-(7,7-Dimethyloct-3-ynyl)imidazole]",–
5.6 ± 1 nM,"CCCCCC#CCCc1c[nH]cn1 [Example 33, 4-Non-3-ynylimidazole]",–
2.8 ± 0.7 nM,"CCCCCCCC#CCCc1c[nH]cn1 [Example 34, 4-Undec-3-ynylimidazole]",–
1210 ± 80 nM,"C(#CCCN1CCOCC1)CCc1c[nH]cn1 [Example 35, 4-(6-Imidazol-4-ylhex-3-ynyl)morpholine]",–
863 ± 139 nM,"C(#Cc1c[nH]cn1)CCCC1CCCCC1 [Example 36, 4-(5-Cyclohexylpent-1-ynyl)imidazole]",–
3.4 ± 1.7 nM,"C(#CCCc1c[nH]cn1)CCCC1CCCCC1 [Example 37, 4-(7-Cyclohexylhept-3-ynyl)imidazole]",–
591 ± 36 nM,"C(#Cc1c[nH]cn1)CCCc1ccccc1 [Example 38, 4-(5-Phenylpent-1-ynyl)imidazole]",–
3 ± 0.2 nM,"CCCCC#CCCc1c[nH]cn1 [Example 40, 4-Oct-3-ynylimidazole]",–
66 ± 5.5 nM,"C#CCCc1c[nH]cn1 [Example 45, 4-But-3-ynylimidazole]",–
26 ± 9.6 nM,"BrC(Br)=CCCc1c[nH]cn1 [Example 47, 4-(4,4-Dibromobut-3-enyl)imidazole]",–
